Data on one compound can be found in patent publication US9980976B2, “Use of REDD1 inhibitors to dissociate therapeutic and adverse atrophogenic effects of glucocorticoid receptor agonists” (Northwestern University, priority 2015, dated 2018).

The test concerns NF-kB dependent genes cyclins D1 and D2, MMP1 and CD74. As to the kind of experiment: Q-PCR analysis of NF-kB dependent genes in HaCaT and CEM cells. Type of test: cell-based, human. The note with it: single treatments, 1 uM. On the procedure:
FIG. 14. Rapamycin enhances GR transrepression. A, B. Q-PCR analysis of MMP13 and CD74 expression in HaCaT cells (A) and cyclin D1 (CCND1) and cyclin D2 (CCND2) expression in CEM cells (B). Cells were pretreated with solvent or Rapa (1 uM)×6 hrs and treated with solvent (Control) or FA (1 uM) for 24 h. A, B. Q-PCR results were normalized to the expression of the housekeeping Rp127 gene, and presented as fold of change compared to control cells. The means+/−SD calculated for three individual RNA samples/condition. a—Statistically significant difference (P<0.05) compared to control; b—Statistically significant differences (P<0.05) compared to FA treatment. C. […] The means+SD were calculated for three individual wells/group in one representative experiment (out of three experiments). a—Statistically significant differences (P<0.05) in comparison to vehicle treatment; b—Statistically significant differences (P<0.05) in comparison to FA treatment.
Total RNA from murine epidermis, whole human skin, and cell cultures was isolated with RiboPure kit (Ambion, Life Technologies, Grand Island, N.Y., USA). […] The gene expression was assessed using semi-quantitative two-step RT-PCR and quantitative Q-PCR. […] For semi-quantitative PCRs, Taq DNA polymerase (Promega) was used, and PCR products were separated on 1.5% agarose gel and visualized using automated imaging system (Bio-Rad, Hercules, Calif., USA). […]

In the case of `CC1(C)O[C@@H]2C[C@H]3[C@@H]4C[C@H](F)C5=CC(=O)C=C[C@]5(C)[C@@]4(F)[C@@H](O)C[C@]3(C)[C@]2(C(=O)CO)O1` [FA, fluocinolone acetonide], the “basal expression of NF-kB dependent genes cyclins D1 and D2, MMP1 and CD74” value is listed as “inhibited”.
